The results in this text go back to PMC12040169 (PLOS Biology, 2025).

A short description of this data set: in vitro. The following applies: human, hela cells, % viability.

In general, viability refers to a read-out of living cells in per cent, often relative to untreated cells. `CN(C)c1ccc(-c2nccnc2NS(=O)(=O)c2cccs2)cc1` [CBK050804]: the viability at 28.5 h, 10 µM is 90.5%.

For `Cc1nc2c(c(=O)[nH]1)CCN(C(=O)c1oc3ccccc3c1C)C2` [CBK283752], the viability at 28.5 h, 10 µM turned out to be 111%. With `Cc1ccc(CN(CC(=O)N2CCCCC2)S(=O)(=O)c2ccc(C)cc2)cc1` [CBK264646], the viability at 28.5 h, 10 µM was 91.6%. For `O=C(CSCc1ccc(C(=O)O)cc1)Nc1ccc2ccccc2c1` [CBK299833], the viability at 28.5 h, 10 µM was 76.1%.

Take `COc1cccc(CC(=O)N2CCC(Cc3ccc(-c4ccccc4)cc3)(C(N)=O)CC2)c1` [CBK285776]: the viability at 28.5 h, 10 µM turned out to be 94.2%. In the case of `CCOc1ccc2[nH]c3c(c2c1)CN(C(=O)C1(C)CCCO1)CC3` (stereo not shown) [CBK282659], the viability at 28.5 h, 10 µM stood at 86.2%. In the case of `O=C(CC1CC1)N1CCCC2(CCN(C(=O)c3cc(F)c(F)cc3F)C2)C1` (stereo not shown) [CBK131531], the viability at 28.5 h, 10 µM was found to be 96.7%.

For `Cc1cc(Cl)ccc1Nc1nnc(C)c(=O)[nH]1` [CBK287922], the viability at 28.5 h, 10 µM was found to be 110%. On to `CCOc1ccc(S(=O)(=O)N2CCCN(Cc3ccc(C#N)cc3)CC2)c2cccnc12` [CBK062759], for which the viability at 28.5 h, 10 µM is 107%.

As for `COc1ccc(-c2ccc(C(=O)NCCN3CCOCC3)c(N(C)C(C)=O)n2)cc1` [CBK076545], the viability at 28.5 h, 10 µM is 102%. Next, `Cc1ncccc1COC(=O)Nc1cccnc1` [CBK138237]: 94.3%; `O=C(NCC1COc2ccccc2O1)c1cc(-c2ccc(Cl)cc2)cnc1N1CCOCC1` (stereo not shown) [CBK076286]: 94.9%. The figure for `CN(C)c1nc(N(C)C)n(Cc2ccc(F)cc2)n1` [CBK018839] is 89.3%; for `O=C(O)c1cccc2cccc(-c3cccc4cccc(C(=O)O)c34)c12` [CBK015494] it is 109%. As for `O=C(O)CC(C(=O)OC1CCCCC1)N1CCOCC1` (stereo not shown) [CBK265970], the viability at 28.5 h, 10 µM came to 95.1%. Next, `Cc1cc(COC(=O)N2CCCC(C(F)(F)F)C2)cc(C)n1` (stereo not shown) [CBK200150]: 92.8%.

For `NS(=O)(=O)c1ccc(CCNC(=O)/C=C/c2ccc([N+](=O)[O-])cc2)cc1` [CBK265683], the viability at 28.5 h, 10 µM came out at 110%. On to `CC1CCc2nn(CCNC(=O)Cc3ccccc3F)c(=O)cc2C1` (stereo not shown) [CBK284482], for which the viability at 28.5 h, 10 µM amounted to 97.2%. Next, `O=[N+]([O-])c1cc2c(cc1C1NN=C(c3ccccc3)S1)OCO2` (stereo not shown) [CBK262540]: 112%.

In the case of `COC(=O)c1ccsc1NS(=O)(=O)c1ccccc1` [CBK026667], the viability at 28.5 h, 10 µM amounted to 88.7%. The figure for `CC(NC1CCCN(c2ccc(C#N)cc2)C1=O)c1cncc(F)c1` (stereo not shown) [CBK306404] is 90.7%; for `CCCCOc1ccc(NC(=O)NC(=O)C2CCN(CCc3ccc(Br)cc3)CC2)cc1` [CBK035096] it is 91.5%. Next, `O=C(Nc1cccnc1)c1ccc(F)cc1Cl` [CBK288246]: 89.9%. As for `CCCN1C(=O)[C@@H]2[C@@H](CCN2C(=O)C(=O)O)N(Cc2cccs2)C1=O` [CBK289277], the viability at 28.5 h, 10 µM was 93.1%. With `COc1ccccc1CCCN1CCC2(C1)NCCc1c2[nH]c2ccccc12` (stereo not shown) [CBK040257], the viability at 28.5 h, 10 µM is 91%. As for `CCOc1ccc(-c2ncncc2-c2ccccc2)c(O)c1` [CBK288111], the viability at 28.5 h, 10 µM was found to be 86.4%. As to `NC(=O)N/N=C/COc1cccc(C(F)(F)F)c1` [CBK022736], the viability at 28.5 h, 10 µM was found to be 102%. For `COc1ccc(C2=NN(c3ccc(C(=O)O)cc3)C(c3ccc(OC)c(OC)c3)C2)cc1` (stereo not shown) [CBK296134], the viability at 28.5 h, 10 µM was 111%. The figure for `O=c1c(N2CCCNCC2)nccn1CCOc1ccc(Oc2ccccc2)cc1` [CBK028615T] is 101%; for `Cc1ccc(C2(O)CC3CCC(C2)N3C(=O)c2ccncc2)cc1` (stereo not shown) [CBK284609] it is 100%. The figure for `CSCCC(NS(=O)(=O)c1ccc(I)cc1)C(=O)O` (stereo not shown) [CBK268768] is 98.6%; for `CNCC(=O)N1CCN(C(=O)c2ccc(Cl)cc2Cl)CC1` [CBK029576] it is 99.9%.

`COc1ccc(/C=C(\NC(C)=O)C(=O)N2CCNCC2)cc1` [CBK077408]: the viability at 28.5 h, 10 µM stood at 90.5%. The figure for `CCOC(=O)Cc1csc(NS(=O)(=O)c2cn(C)cn2)n1` [CBK000888] is 112%; for `CC(c1ccccc1)N1CCn2c(nc3cc(NC(=O)COc4ccccc4)ccc32)C1` (stereo not shown) [CBK268033] it is 105%. The figure for `Cc1cc(C)c(C)c(S(=O)(=O)N2CCN(c3ncnc4sc(C)c(C)c34)CC2)c1C` [CBK265297] is 90.2%.

As for `O=S(=O)(Nc1cccnc1)N1CCOCC1` [CBK269362], the viability at 28.5 h, 10 µM stood at 97.9%. For `O=c1cc(C(F)F)c2cn(C3CCCC3)nc2[nH]1` [CBK288016], the viability at 28.5 h, 10 µM came out at 91.8%. The figure for `COc1ccccc1-c1cc(N2CCN(CC(=O)N(C)c3ccccc3)CC2)ncn1` [CBK091136] is 99%.

As for `COc1ccc(CCN2CNc3c(c(=O)n(C)c(=O)n3C)C2)cc1OC` [CBK074818], the viability at 28.5 h, 10 µM is 86%. In the case of `O=C(NCc1ccc(Cl)c(Cl)c1)Nc1cccc(C(=O)O)c1` [CBK155461G], the viability at 28.5 h, 10 µM was 109%. Next, `OC1(c2ccc(F)cc2)CCCC2CN(Cc3cccnc3)CC21` (stereo not shown) [CBK284377]: 86.8%. Next, `O=C(Nc1cccc2[nH]ccc12)c1ccc2c(c1)OCCO2` [CBK159657]: 85.7%; `C=CCNC(=O)N1CCC2(CC1)OCCc1c2n(C)c2ccccc12` [CBK047354]: 84.8%. The figure for `CCNC(=O)N1CC2(CCN(CCc3cccc4ccccc34)CC2)c2ccccc21` [CBK136965] is 94.7%.

Regarding `CC(C)(C)c1ccc(NC(=O)n2ccc3c(N4CCNCC4)cccc32)cc1` [CBK003736C], the viability at 28.5 h, 10 µM amounted to 27%. Next, `COc1ccc(COc2nc3c(c(=O)n(C)c(=O)n3C)n2Cc2ccc(Cl)c(Cl)c2)cc1` [CBK268779]: 91.3%; `COc1ccc(C2C(C(=O)c3ccc(C)cc3)=C(O)C(=O)N2CCN(C)C)cc1OC` (stereo not shown) [CBK264463]: 90.1%. The figure for `Cc1ccc(SCC(=O)NCc2nc(-c3ccccc3)no2)cc1` [CBK269474] is 102%; for `CC(=O)Nc1ccc(S(=O)(=O)N2CCN(C(=O)COc3ccc(C)cc3)CC2)cc1` [CBK264268] it is 91%; for `CCN(CC)CCOC(=O)c1ccc(N)cc1` [CBK004330C] it is 84.5%. The figure for `O=C(c1ccc2c(c1)OCO2)N1CCN(C(=O)c2ccc(Cl)cc2F)CC1` [CBK296685] is 99%. Regarding `CCOC(=O)C(Cc1ccccc1)C(=O)Nc1ccc(Cl)cc1` (stereo not shown) [CBK261463], the viability at 28.5 h, 10 µM turned out to be 84.2%. The figure for `CCOc1ccc2nc(SCc3nc(N)nc(Nc4cccc(Cl)c4C)n3)sc2c1` [CBK265202] is 83.1%; for `Cc1nc(C)c(CC(=O)NC(c2ccncc2)c2cccs2)s1` (stereo not shown) [CBK281439] it is 96.6%; for `Cc1cccc(-c2cc(C(=O)Nc3sc4c(c3C#N)CCCCCC4)c3ccccc3n2)c1` [CBK262632] it is 103%. With `O=C(Nc1cc(-c2nc3ncccc3o2)ccc1Cl)c1ccc2c(c1)OCCO2` [CBK264105], the viability at 28.5 h, 10 µM worked out at 95%.

Regarding `COc1ccc(C2(C(=O)NCc3ccc4c(c3)OCO4)CC2)cc1` [CBK149829], the viability at 28.5 h, 10 µM stood at 103%. Consider `O=C(NCc1ccc2c(c1)OCO2)N1CCCC(CO)C1` (stereo not shown) [CBK156034], for which the viability at 28.5 h, 10 µM turned out to be 104%. Next, `COc1ccc2ncc(C(=O)O)c(Nc3ccccc3C)c2c1` [CBK269522C]: 104%; `Cc1ccc(NC(=O)CSc2nnc(-c3cnccn3)s2)cc1` [CBK269872]: 83.3%; `O=c1n(Cc2cccnc2)c2cccnc2n1Cc1cccs1` [CBK283903]: 89.7%. The figure for `CC(C)[C@H](CO)n1c(=O)[nH]c2ncc(-c3ccco3)nc21` [CBK064479] is 86.7%.

Take `COC(=O)c1c(NC(=O)C(Cc2ccccc2)N2C(=O)c3ccccc3C2=O)sc2c1CCC2` (stereo not shown) [CBK265744]: the viability at 28.5 h, 10 µM came to 96.1%. On to `Cc1noc(C)c1C(=O)NC(Cc1ccsc1)c1cccnc1` (stereo not shown) [CBK285100], for which the viability at 28.5 h, 10 µM was determined as 90.3%. As for `CC(=O)Nc1ccc(-c2ccc(COC3CCN(C(=O)OC(C)(C)C)CC3)cc2)cc1` [CBK138215], the viability at 28.5 h, 10 µM was found to be 99.8%. With `COc1ccc(-n2ncc3c(N4CCN(C)CC4)ncnc32)cc1` [CBK265848], the viability at 28.5 h, 10 µM amounted to 89%.

With `Cc1nc(C)c(C(=O)Nc2nn(C)c3cccc(N4CCOCC4)c23)o1` [CBK306534], the viability at 28.5 h, 10 µM came out at 83.8%. Next, `CNC(=O)C1(Cc2ccccc2-c2ccccc2C)CCN(C(=O)Cc2ccccc2)CC1` [CBK285901]: 106%. As to `Cc1cccc(C(=O)Nc2ccc(C(=O)NNC(=O)C(C)(C)C)cc2)c1` [CBK269073], the viability at 28.5 h, 10 µM came out at 111%. The figure for `COc1ccc(OCCNC(=O)c2ccc(-c3cccc(N(C)C)c3)nc2N(C)C(C)=O)cc1` [CBK076587] is 92.8%. The figure for `COc1ccc([N+](=O)[O-])cc1NC(=O)N[C@@H]1CC[C@@]2(c3ccc(OC)c(OC)c3)CCN(C)[C@H]2C1` [CBK036449T] is 111%; for `OCCCN1CCC(Oc2cncc(OCCN3CCOCC3)n2)C1` (stereo not shown) [CBK084494] it is 95.9%; for `O=C(O)CCC(=O)c1c[nH]c2ccccc12` [CBK261275] it is 110%. Next, `CCOC(=O)C1CCCCN1S(=O)(=O)c1ccc(Br)s1` (stereo not shown) [CBK096110]: 102%; `CC(C)OC(=O)N1CCC(N(C)Cc2ccc(-c3ccc(S(C)(=O)=O)cc3)cn2)CC1` [CBK165581T]: 90.8%.

As to `CN(C)CCCNC(=O)C1CCN(c2nc3c(-c4ccccc4F)csc3c(=O)[nH]2)CC1` [CBK215438], the viability at 28.5 h, 10 µM is 93.7%. The figure for `CN(C)S(=O)(=O)c1ccc(NC(=O)c2ccc(-c3ccccc3)cc2)cc1` [CBK267322] is 104%.

`CN1Cc2ccccc2-c2ccc(O)cc21` [CBK017804]: the viability at 28.5 h, 10 µM is 97.2%.
